Source: US20220071952A1, “METHODS OF TREATING AND PREVENTING HEPATOTOXICITY” (Natreon, Inc., priority 2020, published 2022)
Several values for one entry are separate records, joined by “and”; a condition that tells them apart may be missing. Equal entries are not always repeated.

What was measured:
[1] = system: paracetamol-induced hepatotoxicity in mice; assay: Synergistic hepatoprotective activity of DBPs against paracetamol-induced hepatotoxicity (Example IV); format: in vivo; conditions: for ACP / ALP / ALT / AST / Total Protein: paracetamol 200 mg/kg, mean ± SEM, n=4; for Relative liver weight / hepatoprotective activity (conclusion, Tables 15 and 16): male and female mice; for Relative liver weight: paracetamol study of Example IV; for hepatoprotective activity (conclusion, Tables 15 and 16): paracetamol-induced hepatotoxicity
[2] = system: paracetamol-induced hepatotoxicity in mice; assay: Paracetamol-induced hepatotoxicity in mice, serum biochemical parameters (Example I); format: in vivo, Swiss albino mice; conditions: for effect on paracetamol-induced hepatotoxicity (ALT, AST, triglyceride, bilirubin vs paracetamol group): 10 mg/kg body weight, male (Table 2) and female (Table 3) mice; for hepatoprotective activity against paracetamol, comparison of both test compounds: 10 mg/kg orally for 7 days; for ALP / ALT / AST / Total Bilirubin / Total Protein / Triglyceride: 10 mg/kg p.o. + paracetamol 200 mg/kg p.o., 7 days, serum, mean ± SD, n=6
From the text: 3-OH-DBP (Natreon, Inc., New Brunswick, N.J., synthesized to 99% purity w/w) was in the form of a white free flowing powder. 3,8-(OH)2-DBP (Natreon, Inc., New Brunswick, N.J., synthesized to 99% purity w/w) was in the form of a pale green free flowing powder. Paracetamol (acetaminophen) was in the form of a white solid tablet.
(§1) Swiss albino mice of both sexes, weighing approximately 25-30 g, were obtained from National Research Institute of Ayurveda for Drug Development (Govt. of India), Kolkata, and were housed in polypropylene cages at 22±3° C., relative air humidity of 45 to 55%, with 12.00 hr light and dark cycle (lighting on from 6:00 AM to 6:00 PM). Mice were provided standard pellet chow (carbohydrate 65.5%, protein 17.6%, fat 6.6%) and distilled water ad libitum. The mice were acclimatized for one week in the above laboratory conditions, before being used in this experiment. All experiments were conducted between 10.00 hr and 14.00 hr. Principles of laboratory animal care (NIH publication no. 85-23, revised 1985) were followed.
The animals were randomly assigned into four groups of six animals each, as set out in Table 1. […] After 1 hr of last treatment, blood samples were collected and serum was separated.

[3] = system: CCl4-induced hepatotoxicity in mice; assay: Carbon tetrachloride (CCl4)-induced hepatotoxicity in mice, serum biochemical parameters (Example II); format: in vivo, Swiss albino mice; conditions: for effect on CCl4-induced hepatotoxicity (ALT, AST, bilirubin, total protein vs CCl4 group) / effect on CCl4-induced lipid peroxidation (MDA): mice; for ALT / AST / MDA / Total Bilirubin / Total Protein: 10 mg/kg p.o. 7 days + CCl4 (30%) 1 ml/kg i.p., serum, mean ± SD, n=6; for hepatoprotective activity against carbon tetrachloride-induced liver damage: males and females
Description: as §1, with “PM) and” for “PM). Mice”, “the” for “the above”, “conditions” for “conditions,”, “the” for “this”, “animals” for “animal”

[4] = female mice, doses 3-OH-DBP 2, 3,8-(OH)2-DBP 10, 1:5 combination 12 mg/kg b.w.
[5] = female mice, doses 3-OH-DBP 10, 3,8-(OH)2-DBP 50, 1:5 combination 60 mg/kg b.w.
[6] = male mice, doses 3-OH-DBP 2, 3,8-(OH)2-DBP 10, 1:5 combination 12 mg/kg b.w.
[7] = male mice, doses 3-OH-DBP 10, 3,8-(OH)2-DBP 50, 1:5 combination 60 mg/kg b.w.
[8] = female mice, paracetamol 200 mg/kg

O=c1oc2cc(O)ccc2c2ccc(O)cc12 [3,8-(OH)2-DBP, 3,8-dihydroxy-dibenzo-alpha-pyrone]
ACP, difference in values from paracetamol treated mice [1, 4]: B = (a-c = 4) U/L
ALP, difference in values from paracetamol treated mice [1, 4]: D = (a-c = 53) IU/L
ALT, difference in values from paracetamol treated mice [1, 4]: B = (a-c = 39) IU/L
AST, difference in values from paracetamol treated mice [1, 4]: B = (a-c = 64) IU/L
ACP, difference in values from paracetamol treated mice [1, 5]: E = (a-f = 5) U/L
ALP, difference in values from paracetamol treated mice [1, 5]: E = (a-f = 48) IU/L
ALT, difference in values from paracetamol treated mice [1, 5]: E = (a-f = 43) IU/L
AST, difference in values from paracetamol treated mice [1, 5]: E = (a-f = 77) IU/L
ACP [1, 4]: 12 ± 0.63^##(c) U/L
ALP [1, 4]: 45 ± 7.9^##(c) IU/L
ALT [1, 4]: 47 ± 12 (c) IU/L
AST [1, 4]: 79 ± 11*,^#(c) IU/L
Total Protein [1, 4]: 6.7 ± 0.02 g/dL
ACP [1, 5]: 11 ± 0.41^#(f) U/L
ALP [1, 5]: 50 ± 11^#(f)^ IU/L
ALT [1, 5]: 43 ± 2.5^##(f) IU/L
AST [1, 5]: 66 ± 11*,^#(f) IU/L
Total Protein [1, 5]: 5.8 ± 0.30 g/dL
Relative liver weight [1]: significantly (p<0.01) increased
ACP, difference in values from paracetamol treated mice [1, 6]: B = (a-c = 6.13) U/L
ALP, difference in values from paracetamol treated mice [1, 6]: B = (a-c = 50.87) IU/L
ALT, difference in values from paracetamol treated mice [1, 6]: B = (a-c = 18.35) IU/L
AST, difference in values from paracetamol treated mice [1, 6]: B = (a-c = 33.82) IU/L
ACP, difference in values from paracetamol treated mice [1, 7]: E = (a-f = 10.56) U/L
ALP, difference in values from paracetamol treated mice [1, 7]: E = (a-f = 48.85) IU/L
ALT, difference in values from paracetamol treated mice [1, 7]: E = (a-f = 20.56) IU/L
AST, difference in values from paracetamol treated mice [1, 7]: E = (a-f = 46.36) IU/L
ACP [1, 6]: 12.06 ± 0.43 (c) U/L
ALP [1, 6]: 77.63 ± 6.81 (c) IU/L
ALT [1, 6]: 49.28 ± 7.23 (c) IU/L
AST [1, 6]: 68.23 ± 4.96^###(c) IU/L
Total Protein [1, 6]: 6.97 ± 0.12 g/dL
ACP [1, 7]: 7.63 ± 0.45^##(f) ^ U/L
ALP [1, 7]: 79.67 ± 10.18^###(f) IU/L
ALT [1, 7]: 47.07 ± 6.69^#(f) ^ IU/L
AST [1, 7]: 55.69 ± 5.37^###(f) IU/L
Total Protein [1, 7]: 6.98 ± 0.12 g/dL
hepatoprotective activity (conclusion, Tables 15 and 16) [1]: hepatoprotective activity in a dose dependent manner
effect on paracetamol-induced hepatotoxicity (ALT, AST, triglyceride, bilirubin vs paracetamol group) [2]: significantly attenuated and reversed the paracetamol-induced hepatotoxicity
hepatoprotective activity against paracetamol, comparison of both test compounds [2, 8]: almost the same hepatoprotective activity
ALP ([2]; female mice): 105.1 ± 12.40 IU/L
ALT ([2]; female mice): 76.91 ± 16.87 IU/L
AST ([2]; female mice): 51.76 IU/L and 51.76 ± 3.72 IU/L
Total Bilirubin ([2]; female mice): 0.58 ± 0.30 mg/dL
Total Protein ([2]; female mice): 0.00541 ± 0.00049 g/dL
Triglyceride ([2]; female mice): 45.13 ± 0.80 mg/dL
ALP ([2]; male mice): 107.1 ± 19.11 IU/L
ALT ([2]; male mice): 95.97 ± 29.52 IU/L
AST ([2]; male mice): 85.75 ± 11.59 IU/L
Total Bilirubin ([2]; male mice): 0.48 ± 0.14 mg/dL
Total Protein ([2]; male mice): 5.53 ± 0.23 g/dL
Triglyceride ([2]; male mice): 57.06 ± 0.90 mg/dL
effect on CCl4-induced hepatotoxicity (ALT, AST, bilirubin, total protein vs CCl4 group) ([3]; 10 mg/kg p.o.): significantly attenuated and reversed the CCl4-induced hepatotoxicity
effect on CCl4-induced lipid peroxidation (MDA) ([3]; 10 mg/kg p.o.): significantly lowered CCl4-induced lipid peroxidation
ALT ([3]; female mice): 60.99 ± 13.49 IU/L
AST ([3]; female mice): 12.95 ± 2.46 IU/L
MDA ([3]; female mice): 6.53 ± 0.66 nmol/mL
Total Bilirubin ([3]; female mice): 0.60 ± 0.18 mg/dL
Total Protein ([3]; female mice): 4.02 ± 0.3 g/dL
hepatoprotective activity against carbon tetrachloride-induced liver damage, in comparison to 3-OH-DBP ([3]; females, 10 mg/kg p.o.): better hepatoprotective activity
ALT ([3]; male mice): 64.78 ± 4.65 IU/L
AST ([3]; male mice): 13.04 ± 3.74 IU/L
Total Bilirubin ([3]; male mice): 0.48 ± 0.14 mg/dL
Total Protein ([3]; male mice): 0.00412 ± 0.00086 g/dL
MDA ([3]; male mice, 10 mg/kg): 6.59 nmol/mL and 6.59 ± 0.82 nmol/mL
hepatoprotective activity against carbon tetrachloride-induced liver damage ([3]; 10 mg/kg p.o.): significant hepatoprotective activity

O=c1oc2cc(O)ccc2c2ccccc12 [3-OH-DBP, 3-hydroxy-dibenzo-alpha-pyrone]
ACP, difference in values from paracetamol treated mice [1, 4]: A = (a-b = 4) U/L
ALP, difference in values from paracetamol treated mice [1, 4]: A = (a-b = 21) IU/L
ALT, difference in values from paracetamol treated mice [1, 4]: A = (a-b = 15) IU/L
AST, difference in values from paracetamol treated mice [1, 4]: A = (a-b = 45) IU/L
ACP, difference in values from paracetamol treated mice [1, 5]: D = (a-e = 7.6) U/L
ALP, difference in values from paracetamol treated mice [1, 5]: D = (a-e = 26) IU/L
ALT, difference in values from paracetamol treated mice [1, 5]: D = (a-e = 36) IU/L
AST, difference in values from paracetamol treated mice [1, 5]: D = (a-e = 71) IU/L
ACP [1, 4]: 12 ± 0.71***(b) U/L
ALP [1, 4]: 77 ± 11***(b) IU/L
ALT [1, 4]: 71 ± 9**(b) ^ IU/L
AST [1, 4]: 98 ± 10**(b) IU/L
Total Protein [1, 4]: 6.2 ± 0.16 g/dL
ACP [1, 5]: 8.4 ± 1.2^#(e) ^ U/L
ALP [1, 5]: 72 ± 6.9**(e) IU/L
ALT [1, 5]: 50 ± 9.8*,^#(e) IU/L
AST [1, 5]: 72 ± 6*,^#(e)^ IU/L
Total Protein [1, 5]: 6.2 ± 0.02 g/dL
Relative liver weight [1]: significantly (p<0.01) increased
ACP, difference in values from paracetamol treated mice [1, 6]: A = (a-b = 8.5) U/L
ALP, difference in values from paracetamol treated mice [1, 6]: A = (a-b = 38.33) IU/L
ALT, difference in values from paracetamol treated mice [1, 6]: A = (a-b = 7.29) IU/L
AST, difference in values from paracetamol treated mice [1, 6]: A = (a-b = 30.67) IU/L
ACP, difference in values from paracetamol treated mice [1, 7]: D = (a-e = 5.44) U/L
ALP, difference in values from paracetamol treated mice [1, 7]: D = (a-e = 43.75) IU/L
ALT, difference in values from paracetamol treated mice [1, 7]: D = (a-e = 16.14) IU/L
AST, difference in values from paracetamol treated mice [1, 7]: D = (a-e = 31.7) IU/L
ACP [1, 6]: 9.69 ± 0.32**,^##(b) U/L
ALP [1, 6]: 90.17 ± 4.16***,^#(b) IU/L
ALT [1, 6]: 60.34 ± 4.78 (b) IU/L
AST [1, 6]: 71.38 ± 4.63^#(b)^ IU/L
Total Protein [1, 6]: 7.28 ± 0.14 g/dL
ACP [1, 7]: 12.75 ± 1.43 (e) U/L
ALP [1, 7]: 84.75 ± 5.32*,^#(e)^ IU/L
ALT [1, 7]: 51.49 ± 4.49 (e)^ IU/L
AST [1, 7]: 70.35 ± 6.21(e)^ IU/L
Total Protein [1, 7]: 7.34 ± 0.15 g/dL
hepatoprotective activity (conclusion, Tables 15 and 16) [1]: hepatoprotective activity in a dose dependent manner
effect on paracetamol-induced hepatotoxicity (ALT, AST, triglyceride, bilirubin vs paracetamol group) [2]: significantly attenuated and reversed the paracetamol-induced hepatotoxicity
hepatoprotective activity against paracetamol, comparison of both test compounds [2, 8]: almost the same hepatoprotective activity
ALP ([2]; female mice): 82.04 ± 8.96 IU/L
ALT ([2]; female mice): 62.32 ± 15.97 IU/L
AST ([2]; female mice): 62.28 ± 12.46 IU/L
Total Bilirubin ([2]; female mice): 0.46 ± 0.26 mg/dL
Total Protein ([2]; female mice): 6.6 ± 0.44 g/dL
Triglyceride ([2]; female mice): 61.05 ± 1.73 mg/dL
hepatoprotective activity against paracetamol-induced liver damage, in comparison with 3,8-(OH)2-DBP ([2]; male mice, 10 mg/kg orally once daily for 7 days, paracetamol 200 mg/kg): better hepatoprotective activity
ALP ([2]; male mice): 80.00 ± 5.64 IU/L
ALT ([2]; male mice): 65.42 ± 23.50 IU/L
AST ([2]; male mice): 52.23 ± 3.73 IU/L
Total Bilirubin ([2]; male mice): 0.50 ± 0.23 mg/dL
Total Protein ([2]; male mice): 6.27 ± 0.14 g/dL
Triglyceride ([2]; male mice): 97.65 ± 1.96 mg/dL
effect on CCl4-induced hepatotoxicity (ALT, AST, bilirubin, total protein vs CCl4 group) ([3]; 10 mg/kg p.o.): significantly attenuated and reversed the CCl4-induced hepatotoxicity
effect on CCl4-induced lipid peroxidation (MDA) ([3]; 10 mg/kg p.o.): significantly lowered CCl4-induced lipid peroxidation
ALT ([3]; female mice): 67.34 ± 12.07 IU/L
AST ([3]; female mice): 17.48 ± 5.67 IU/L
MDA ([3]; female mice): 8.13 ± 0.167 nmol/mL
Total Bilirubin ([3]; female mice): 0.53 ± 0.21 mg/dL
Total Protein ([3]; female mice): 3.92 ± 0.88 g/dL
ALT ([3]; male mice): 58.21 ± 6.79 IU/L
AST ([3]; male mice): 12.33 ± 3.29 IU/L
Total Bilirubin ([3]; male mice): 0.50 ± 0.23 mg/dL
Total Protein ([3]; male mice): 0.00355 ± 0.00031 g/dL
MDA ([3]; male mice, 10 mg/kg): 7.04 nmol/mL and 7.04 ± 0.09 nmol/mL
hepatoprotective activity against carbon tetrachloride-induced liver damage ([3]; 10 mg/kg p.o.): significant hepatoprotective activity
